pIC50: −log10 of the molar value. Calls of active or inactive are those of the source. The calls are words filed in the database; no cut-off is given here.
Columns and labels:
HCT-116 = experiment: Compound was tested for its cytotoxicity against human colon cancer cell line HCT116; format: functional, cell-based
M109 [1] = experiment: In vivo antitumor activity expressed as percent median survival time of treated mice to saline treated mice against murine lung carcinoma M109 at 90 mg/kg (ip) on days 1, 5 and 9; format: functional, Mus musculus
Rattus norvegicus [2] = organism: Rattus norvegicus; experiment: Tested for tubulin polymerization assay in rat; Inactive; format: functional, organism-based
M109 [3] = experiment: In vivo antitumor activity expressed as percent median survival time of treated mice to saline treated mice against murine lung carcinoma M109 at 90 mg/kg (ip) on days 5 and 8; format: functional, Mus musculus
Rattus norvegicus [4] = organism: Rattus norvegicus; experiment: Tested to promote microtubule assembly by tubulin polymerization assay in rat plasma at 37 degree C for 18 hr; Active; format: functional, organism-based
M109 [5] = experiment: In vivo antitumor activity expressed as percent median survival time of treated mice to saline treated mice against murine lung carcinoma M109 at 75 mg/kg (ip) on days 5 and 8 reference to 3g; format: functional, Mus musculus
M109 [6] = experiment: In vivo antitumor activity expressed as percent median survival time of treated mice to saline treated mice against murine lung carcinoma M109 at 30 mg/kg (ip) on days 1, 5 and 9 reference to 3b; format: functional, Mus musculus
M109 [7] = experiment: In vivo antitumor activity expressed as percent median survival time of treated mice to saline treated mice against murine lung carcinoma M109 at 30 mg/kg (ip) on days 1, 5 and 9 reference to 3d; format: functional, Mus musculus
M109 [8] = experiment: In vivo antitumor activity expressed as percent median survival time of treated mice to saline treated mice against murine lung carcinoma M109 at 75 mg/kg (ip) on days 5 and 8 reference to 3a; format: functional, Mus musculus
M109 [9] = experiment: In vivo antitumor activity expressed as percent median survival time of treated mice to saline treated control against murine lung carcinoma M109 at 50 mg/kg (ip) on days 5 and 8 reference to 3c; format: functional, Mus musculus
M109 [10] = experiment: In vivo antitumor activity expressed as percent median survival time of treated mice to saline treated mice against murine lung carcinoma M109 at 50 mg/kg (ip) on days 1, 5 and 9 reference to 3e; format: functional, Mus musculus
M109 [11] = experiment: In vivo antitumor activity expressed as percent median survival time of treated mice to saline treated mice against murine lung carcinoma M109 at 30 mg/kg (ip) on days 1, 5 and 9 reference to 3f; format: functional, Mus musculus
M109 [12] = experiment: In vivo antitumor activity expressed as percent median survival time of treated mice to saline treated mice against murine lung carcinoma M109 at 75 mg/kg (ip) on days 5 and 8 reference to 3h; format: functional, Mus musculus
M109 [13] = experiment: In vivo antitumor activity expressed as percent median survival time of treated mice to saline treated mice against murine lung carcinoma M109 at 75 mg/kg (ip) on days 5 and 8 reference to 3i; format: functional, Mus musculus

SMILES | pIC50 (HCT-116) | T/C (M109 [1]) | Activity (Rattus norvegicus [2]) | T/C (M109 [3]) | further results
CC(=O)O[C@H]1C(=O)[C@@]2(C)C([C@H](OC(=O)c3ccccc3)[C@]3(O)C[C@H](OC(=O)[C@H](OC(=O)OCc4ccccc4)[C@@H](NC(=O)c4ccccc4)c4ccccc4)C(C)=C1C3(C)C)[C@]1(OC(C)=O)COC1C[C@@H]2O (stereo partly specified) | 7.52 | 310% | inactive |  | 
COC(=O)O[C@@H](C(=O)O[C@H]1C[C@@]2(O)[C@@H](OC(=O)c3ccccc3)C3[C@]4(OC(C)=O)COC4C[C@H](O)[C@@]3(C)C(=O)[C@H](OC(C)=O)C(=C1C)C2(C)C)[C@@H](NC(=O)c1ccccc1)c1ccccc1 (stereo partly specified) | < 7.10 |  |  | 162% | Activity (Rattus norvegicus [4]): Active
CC(=O)O[C@H]1C(=O)[C@@]2(C)C([C@H](OC(=O)c3ccccc3)[C@]3(O)C[C@H](OC(=O)[C@H](OC(=O)Oc4ccccc4)[C@@H](NC(=O)c4ccccc4)c4ccccc4)C(C)=C1C3(C)C)[C@]1(OC(C)=O)COC1C[C@@H]2O (stereo partly specified) | 8.15 |  | inactive | 203% | 
C=COC(=O)O[C@@H](C(=O)O[C@H]1C[C@@]2(O)[C@@H](OC(=O)c3ccccc3)C3[C@]4(OC(C)=O)COC4C[C@H](O)[C@@]3(C)C(=O)[C@H](OC(C)=O)C(=C1C)C2(C)C)[C@@H](NC(=O)c1ccccc1)c1ccccc1 (stereo partly specified) | 7.40 | >475% | inactive |  | 
CC(=O)O[C@H]1C(=O)[C@@]2(C)C([C@H](OC(=O)c3ccccc3)[C@]3(O)C[C@H](OC(=O)[C@H](OC(=O)OCCl)[C@@H](NC(=O)c4ccccc4)c4ccccc4)C(C)=C1C3(C)C)[C@]1(OC(C)=O)COC1C[C@@H]2O (stereo partly specified) | 7.52 | 275% | inactive |  | 
C=C(C)OC(=O)O[C@@H](C(=O)O[C@H]1C[C@@]2(O)[C@@H](OC(=O)c3ccccc3)C3[C@]4(OC(C)=O)COC4C[C@H](O)[C@@]3(C)C(=O)[C@H](OC(C)=O)C(=C1C)C2(C)C)[C@@H](NC(=O)c1ccccc1)c1ccccc1 (stereo partly specified) | > 7.82 |  | inactive | 235% | 
CC(=O)O[C@H]1C(=O)[C@@]2(C)C([C@H](OC(=O)c3ccccc3)[C@]3(O)C[C@H](OC(=O)[C@H](OC(=O)OC(C)C)[C@@H](NC(=O)c4ccccc4)c4ccccc4)C(C)=C1C3(C)C)[C@]1(OC(C)=O)COC1C[C@@H]2O (stereo partly specified) | < 7.10 |  | inactive | 247% | 
CCOC(=O)O[C@@H](C(=O)O[C@H]1C[C@@]2(O)[C@@H](OC(=O)c3ccccc3)C3[C@]4(OC(C)=O)COC4C[C@H](O)[C@@]3(C)C(=O)[C@H](OC(C)=O)C(=C1C)C2(C)C)[C@@H](NC(=O)c1ccccc1)c1ccccc1 (stereo partly specified) | 7.52 | >475% |  |  | Activity (Rattus norvegicus [4]): Active
CC(=O)O[C@H]1C(=O)[C@@]2(C)[C@H]([C@H](OC(=O)c3ccccc3)[C@]3(O)C[C@H](OC(=O)[C@H](O)[C@@H](NC(=O)c4ccccc4)c4ccccc4)C(C)=C1C3(C)C)[C@]1(OC(C)=O)CO[C@@H]1C[C@@H]2O [PACLITAXEL] |  |  |  |  | T/C (M109 [5]): 262%; T/C (M109 [6]): 275%; T/C (M109 [7]): 275%; T/C (M109 [8]): 276%; T/C (M109 [9]): 197%; T/C (M109 [10]): 270%; T/C (M109 [11]): 275%; T/C (M109 [12]): 262%; T/C (M109 [13]): 262%
CC(=O)O[C@H]1C(=O)[C@@]2(C)C([C@H](OC(=O)c3ccccc3)[C@]3(O)C[C@H](OC(=O)[C@H](OC(=O)Oc4cccc(N(C)C)c4)[C@@H](NC(=O)c4ccccc4)c4ccccc4)C(C)=C1C3(C)C)[C@]1(OC(C)=O)COC1C[C@@H]2O (stereo partly specified) | 7.80 |  | inactive | 226% | 

Source: ChEMBL document CHEMBL1151041, “Synthesis and antitumor evaluation of 2-oxycarbonylpaclitaxels (paclitaxel-2-carbonates)” (Bioorg Med Chem Lett, 1994)
